Laboratory results from ChEMBL document CHEMBL1938377, “Synthesis and evaluation of 17α-E-20-(heteroaryl)norpregn-1,3,5(10),20 tetraene-3,17β-diols [17α-(heteroaryl)vinyl estradiols] as ligands for the estrogen receptor-α ligand binding domain (ERα-LBD)” (Bioorg Med Chem Lett, 2012).
Calls of active or inactive are those of the source. The rule behind the calls is not given here.

Experiments:
[1] = Agonist activity at estrogen receptor in human Ishikawa cells assessed as increase of alkaline phosphatase level after 3 days using P-nitrophenyl phosphate as substrate relative to estradiol; type: functional
Ishikawa = experiment: Antagonist activity at estrogen receptor in human Ishikawa cells assessed as inhibition of estradiol-induced alkaline phosphatase level after 3 days using P-nitrophenyl phosphate as substrate; type: functional, cell-based
[2] = biological target: T1, Estrogen receptor (Homo sapiens) (UniProt P03372); experiment: Displacement of [3H]-estradiol from human […] LBD expressed in Escherichia coli at 1 uM to 1 pM relative to estradiol
T1 sequence (whole entry): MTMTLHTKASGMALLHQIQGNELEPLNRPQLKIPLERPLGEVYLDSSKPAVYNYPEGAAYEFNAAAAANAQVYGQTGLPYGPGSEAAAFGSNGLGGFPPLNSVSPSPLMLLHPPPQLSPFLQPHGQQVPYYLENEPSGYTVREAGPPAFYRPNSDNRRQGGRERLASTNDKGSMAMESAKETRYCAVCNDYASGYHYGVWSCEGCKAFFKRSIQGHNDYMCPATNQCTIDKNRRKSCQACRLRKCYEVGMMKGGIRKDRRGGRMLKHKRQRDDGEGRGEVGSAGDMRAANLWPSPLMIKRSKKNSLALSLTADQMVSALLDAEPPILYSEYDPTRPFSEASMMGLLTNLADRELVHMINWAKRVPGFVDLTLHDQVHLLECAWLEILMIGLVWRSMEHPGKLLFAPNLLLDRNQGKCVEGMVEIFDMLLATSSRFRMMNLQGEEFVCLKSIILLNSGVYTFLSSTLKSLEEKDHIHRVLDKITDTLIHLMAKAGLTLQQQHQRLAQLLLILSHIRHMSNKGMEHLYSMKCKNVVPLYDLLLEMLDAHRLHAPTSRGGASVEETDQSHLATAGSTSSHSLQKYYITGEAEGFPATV

[3] = Agonist activity at estrogen receptor in human Ishikawa cells assessed as increase of alkaline phosphatase level after 3 days using P-nitrophenyl phosphate as substrate; type: functional, cell-based; conditions: 72 h

Q: What does the source list for C[C@]12CC[C@@H]3c4ccc(O)cc4CC[C@H]3[C@@H]1CC[C@@]2(O)/C=C/c1ccccc1?
A: RSA [1]: 9.5%; inhibition (Ishikawa): inactive; RBA [2]: 10.3

Q: With C[C@]12CC[C@@H]3c4ccc(O)cc4CC[C@H]3[C@@H]1CC[C@@]2(O)/C=C/c1ccncc1 as the molecule, how does the RSA [1] read?
A: 0.1%

Q: What about the inhibition (Ishikawa) of the same molecule?
A: inactive

Q: What about the RBA [2] of the same molecule?
A: 2.5

Q: With C[C@]12CC[C@@H]3c4ccc(O)cc4CC[C@H]3[C@@H]1CC[C@@]2(O)/C=C/c1ccccn1 as the molecule, how does the RSA [1] read?
A: 0.1%

Q: What about the inhibition (Ishikawa) of the same molecule?
A: inactive

Q: And the RBA [2]?
A: 1.5

Q: With C[C@]12CC[C@@H]3c4ccc(O)cc4CC[C@H]3[C@@H]1CC[C@@]2(O)/C=C/c1ccsc1 as the molecule, how does the RSA [1] read?
A: 2.5%

Q: And the inhibition (Ishikawa)?
A: inactive

Q: What about the RBA [2] of the same molecule?
A: 2.9

Q: Which EC50 [3] does the source give for C[C@]12CC[C@@H]3c4ccc(O)cc4CC[C@H]3[C@@H]1CC[C@@H]2O [ESTRADIOL] here?
A: 0.9 nM

Q: With C[C@]12CC[C@@H]3c4ccc(O)cc4CC[C@H]3[C@@H]1CC[C@@]2(O)/C=C/c1cccnc1 as the molecule, how does the RSA [1] read?
A: 0.25%

Q: And the inhibition (Ishikawa)?
A: inactive

Q: And the RBA [2]?
A: 4

Q: With C[C@]12CC[C@@H]3c4ccc(O)cc4CC[C@H]3[C@@H]1CC[C@@]2(O)/C=C/c1cncnc1 as the molecule, how does the RSA [1] read?
A: 0.4%

Q: And the inhibition (Ishikawa)?
A: inactive

Q: What about the RBA [2] of the same molecule?
A: 0.8

Q: With C[C@]12CC[C@@H]3c4ccc(O)cc4CC[C@H]3[C@@H]1CC[C@@]2(O)/C=C/c1cccs1 as the molecule, how does the RSA [1] read?
A: 2.5%

Q: What about the inhibition (Ishikawa) of the same molecule?
A: inactive

Q: What about the RBA [2] of the same molecule?
A: 2.7
